From patent publication US20140079741A1, “INHIBITION AND TREATMENT OF BIOFILMS” (priority 2011, published 2014) come the findings set out here.

The test system of assay [1] is C. albicans biofilms of wild type CAF2. In words: Biofilm activity assay, crystal violet quantification (BEC50). Type of assay: cell-based, Candida albicans. To be noted: 500 μg/ml diclofenac in the absence of miconazole. On the procedure:
Biofilm activity assay. The activity of miconazole and fluconazole against 16 h-old C. albicans biofilms (10^7 cells/well) was assessed using the crystal violet quantification method. The biofilm-eradicating capacity of a compound was determined as the minimal concentration resulting in 50% eradication of the biofilm (BEC50).
Miconazole sensitivity was analyzed of biofilms of C. albicans homozygous null mutants affected in genes involved in the cyclic AMP signaling pathway, namely Δcdc35, Δras1, Δpde1, Δpde2 and Δefg1. To this end, the inventors incubated 16 h-old C. albicans biofilms with various concentrations of miconazole for 24 h and determined the remaining biomass using the crystal violet quantification method.
To this end, cultures of the WT CAF2-1 were grown overnight (2×10^8 cells/ml) in YPD (1% yeast extract, 2% peptone, 2% glucose) and washed 3 times in PBS (pH 7.4). After dilution (OD600=0.5) in SC (1% CSM, complete amino acid supplement mixture, 1% YNB, yeast nitrogen base; 2% glucose), the cultures were resuspended (100 μl/well) in a 96well microtiter plate. After 1 h of adhesion, the adherent WT cells were incubated with or without 500 μg/ml diclofenac and allowed biofilm formation for 16 h. Next, the resulting biofilms were washed with PBS and treated with various concentrations of miconazole for 24 h in the absence or presence of diclofenac. After washing, the remaining biomass was determined using the crystal violet quantification method.
The biofilm-eradicating capacity of a compound was determined as the minimal concentration resulting in 50% eradication of the biofilm (BEC50).

Assay [2] has as its system C. albicans CAF2 biofilms on implanted catheter fragments. Put plainly: Rat subcutaneous catheter infection model (in vivo biofilm susceptibility). To be noted: rats. Also noted: species or system Candida albicans. Here is the method:
A rat subcutaneous catheter infection model was used for in vivo biofilm susceptibility studies, in which 6 rats were treated with sterile saline (control, 40 catheters), 6 rats with diclofenac (48 catheters), 5 rats with caspofungin (40 catheters) and 6 rats with a combination of diclofenac and caspofungin (45 catheters).
Diclofenac and caspofungin solutions for intravenous injection were prepared in sterile physiological solution. The administration of diclofenac (3 mg/kg) started immediately after the catheter implant and continued daily up to 9 days. The treatment with caspofungin (3 mg/kg) was initiated after 48 h of in vivo biofilm development and maintained by daily injections for 7 days. Sterile saline was administered to the control group. Further analysis and quantification of the number of cells per individual biofilm was performed as previously described. Statistical analysis was performed using unpaired t-test; differences were considered significant if p<0.05. Data are the means and SEM of 2 independent experiments. Six independent catheters retrieved from each test group were used for scanning electron microscopy (SEM) analyses. Prior to the SEM analysis, each catheter fragment was cut longitudinally through the lumen and subsequently prepared for microscopy as previously described.

The test system of assay [3] is planktonic cultures of C. albicans CAF2-1. In words: MIC50 against planktonic cultures (NCCLS M27-A3). To be noted: diclofenac up to 2 mM. Type of assay: cell-based, Candida albicans. Here is the method:
(§1) Similar results were obtained by determination of the MIC50 values. The susceptibility testing and determination of minimal inhibitory concentrations (MIC) of diclofenac and caspofungin, and combinations thereof that inhibit fungal growth by 50% (MIC50) were performed according the NCCLS M27-A3 protocol (2008).

Assay [4] relates to biofilms of C. albicans CAF2-1. In words: MIC50 against biofilms (XTT reduction assay). Type of assay: cell-based, Candida albicans. To be noted: Candida albicans, biofilms, diclofenac alone. Here is the method: Using the same setup as above, WT biofilms grown in the presence or absence of diclofenac (0.5-3 mM or 148-888 μg/mL) were incubated with various concentrations of Caspofungin (0-150 μM) for 24 h, both in the presence or absence of diclofenac. After washing, the remaining living cells within the biofilm was determined by CellTiter-Blue quantification. The MIC50 of caspofungin, diclofenac and the combination of both drugs against pretreated or mature C. albicans biofilms was quantified by XTT reduction assay (Ramage et al.).
as §1
For orientation: Tetrazolium assays rely on reduction of a dye to a coloured formazan, in cell work by metabolically active cells.

For another assay, the system named is C. albicans cells. Put plainly: Morphology of planktonic and biofilm cells (fluorescence microscopy). Type of assay: cell-based, Candida albicans. To be noted: pretreated with diclofenac alone, 0.5-3 mM. Here is the method: However, the morphology of biofilm cells pretreated with diclofenac alone (ranging from 0.5-3 mM), was not altered.
The test system of a further assay is C. albicans WT biofilms. In words: Biofilm survival by CFU determination (plating on YPD). The class given is cell-based, Candida albicans. As to conditions: 500 μg/ml diclofenac alone. Here is the method: Using the same setup as in Example 2, WT biofilms grown in the presence or absence of diclofenac (500 μg/ml) or Δefg1 biofilms were incubated with various concentrations of Amphotericin B (AmB) (2.5-10 μg/ml) for 24 h, both in the presence or absence of diclofenac. After washing, the remaining living cells within the biofilm were determined by plating on YPD and determination of colony forming units (CFUs).

Assay [5] deals with C. albicans biofilm cells. Put plainly: Membrane permeability by propidium iodide fluorescence. Type of assay: cell-based, Candida albicans. As to conditions: 2 mM diclofenac during adhesion and growth phase, 24 h, RPMI 1640. On the procedure: This was further investigated by evaluating the membrane-disruptive activity of diclofenac on in vitro grown C. albicans biofilm cells by measuring the fluorescence enhancement of propidium iodide (PI). To this end, C. albicans biofilms were grown in RPMI 1640 (pH 7.0) in the presence or absence of diclofenac (ranging from 0.25-4 mM) for 24 h. Next, the biofilm cells were incubated with 3% PI for 20 minutes at room temperature in the dark. Membrane permeability was quantified by measurement of PI fluorescence (excitation at 535 nm, emission at 617 nm).

Assay [6] deals with C. albicans biofilms grown on catheters. In words: In vitro biofilm drug susceptibility on polyurethane catheter pieces (CFU). Type of assay: cell-based, Candida albicans. To be noted: 2 mM diclofenac pretreatment alone. Here is the method:
In an alternative setup, in vitro biofilm drug susceptibility assays were performed using serum-coated 1 cm polyurethane catheter pieces (Arrow International Reading) as described previously. Biofilms were grown in RPMI 1640 (pH 7.0) and Candida cells were allowed to adhere to the substrate for 90 min.
Diclofenac (2 mM) was administered during the period of adhesion of C. albicans cells on the catheters and throughout the period of biofilm formation. Catheter fragments containing diclofenac-pretreated or untreated mature biofilms were washed and subsequently incubated with caspofungin (125 μM) or water in the presence or absence of diclofenac (2 mM) for 24 h, respectively. Biofilms were washed and quantified by determination of colony forming units. Untreated biofilms were considered as controls. Statistical analysis was performed using unpaired t-test; differences were considered significant if p<0.05. Data are the mean and SEM of five independent experiments using at least two catheters per test group.
Similar results were obtained when assessing the antibiofilm effect of caspofungin against mature biofilms, which were formed on diclofenac-soaked catheter fragments versus those formed on unsoaked catheter fragments.

With `O=C(O)Cc1ccccc1Nc1c(Cl)cccc1Cl` [diclofenac], the “remaining C. albicans biofilms compared to untreated WT biofilms” value in assay [1] is “about 50%”. In addition, the “biofilm structure by scanning electron microscopy” value in assay [2] (diclofenac alone) is “no biofilm-inhibitory effect”. Also, in assay [2] (diclofenac alone 3 mg/kg intravenous daily, 48 h pretreatment and up to 7 days further), the “number of biofilm cells on catheters compared to control treatment” value is on record as “no significant difference”. For the same compound, the “inhibitory activity against planktonic cells” value in assay [3] is given as “no inhibitory activity”. Also, in assay [4], the MIC50 stood at 2000 µM. Further, the “morphology of biofilm cells” value with C. albicans cells was “not altered”. For the same compound, the “less biofilm cells compared to untreated WT biofilms” value with C. albicans WT biofilms is “about 50%”. Further, in assay [5], the “membrane permeability compared to untreated cells” value is “significantly increased membrane permeability”. In addition, in assay [6], the “number of biofilm cells compared to untreated catheters” value is “no significant difference”.
